Assay results as given in patent publication US20090124663A1, “Novel n-phenyl-piperidine derivatives and their use as monoamine neurotransmitter re-uptake inhibitors” (NeuroSearch A/S, priority 2005, published 2009).
Structures can show the parent of a compound that is named as a salt.

Legend:
[1] = target: T1, reuptake of dopamine (DA) in synaptosomes (Rattus norvegicus, UniProt P23977); assay: Inhibition of dopamine reuptake in synaptosomes; format: biochemical
T1 construct: in synaptosomes as described in WO 97/16451; from tissue
T1 sequence (P23977 whole entry): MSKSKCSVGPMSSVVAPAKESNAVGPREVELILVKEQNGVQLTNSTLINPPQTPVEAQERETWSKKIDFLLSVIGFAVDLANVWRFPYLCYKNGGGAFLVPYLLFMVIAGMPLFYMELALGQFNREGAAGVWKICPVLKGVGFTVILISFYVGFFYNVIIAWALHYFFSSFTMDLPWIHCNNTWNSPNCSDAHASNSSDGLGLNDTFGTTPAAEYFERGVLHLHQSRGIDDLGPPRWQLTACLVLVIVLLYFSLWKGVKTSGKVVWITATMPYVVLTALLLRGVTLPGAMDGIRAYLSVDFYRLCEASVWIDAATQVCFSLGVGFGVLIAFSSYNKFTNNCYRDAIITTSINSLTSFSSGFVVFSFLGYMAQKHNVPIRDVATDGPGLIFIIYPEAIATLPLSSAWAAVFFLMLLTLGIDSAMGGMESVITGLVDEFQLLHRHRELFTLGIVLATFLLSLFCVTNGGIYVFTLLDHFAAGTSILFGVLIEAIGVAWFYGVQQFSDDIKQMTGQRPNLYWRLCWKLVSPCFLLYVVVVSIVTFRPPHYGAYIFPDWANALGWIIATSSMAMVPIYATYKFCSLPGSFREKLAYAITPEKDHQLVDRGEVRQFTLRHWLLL
Method: (§1) Compounds were tested for their ability to inhibit the reuptake of the monoamine neurotransmitters dopamine (DA) noradrenaline (NA) and serotonine (5-HT) in synaptosomes as described in WO 97/16451.
(§2) The test values are given as IC50 (the concentration (μM) of the test substance which inhibits the specific binding of ^3H-DA, ^3H-NA, or ^3H-5-HT by 50%).

[2] = target: T2, reuptake of noradrenaline (NA) in synaptosomes (Rattus norvegicus, UniProt Q9WTR4); assay: Inhibition of noradrenaline reuptake in synaptosomes; format: biochemical
T2 construct: in synaptosomes as described in WO 97/16451; from tissue
T2 sequence (Q9WTR4 1-597): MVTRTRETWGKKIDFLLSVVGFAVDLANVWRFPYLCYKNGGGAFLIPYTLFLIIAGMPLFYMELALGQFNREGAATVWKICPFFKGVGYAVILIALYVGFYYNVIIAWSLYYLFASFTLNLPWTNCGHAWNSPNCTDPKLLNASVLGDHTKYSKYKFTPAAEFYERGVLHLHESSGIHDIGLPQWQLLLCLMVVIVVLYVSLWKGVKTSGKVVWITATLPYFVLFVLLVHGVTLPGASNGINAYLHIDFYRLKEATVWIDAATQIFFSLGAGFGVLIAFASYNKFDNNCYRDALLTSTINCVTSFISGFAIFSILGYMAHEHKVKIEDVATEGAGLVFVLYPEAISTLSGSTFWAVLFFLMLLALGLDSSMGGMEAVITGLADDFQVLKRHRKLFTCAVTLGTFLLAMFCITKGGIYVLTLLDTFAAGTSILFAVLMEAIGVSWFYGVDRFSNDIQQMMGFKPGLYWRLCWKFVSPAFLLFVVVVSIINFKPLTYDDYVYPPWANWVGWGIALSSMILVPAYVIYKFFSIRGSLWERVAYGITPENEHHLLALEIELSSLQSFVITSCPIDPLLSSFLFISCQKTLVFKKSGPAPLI
Method: as §1, §2

[3] = target: T3, reuptake of serotonine (5-HT) in synaptosomes (Rattus norvegicus, UniProt P31652); assay: Inhibition of serotonin reuptake in synaptosomes; format: biochemical
T3 construct: in synaptosomes as described in WO 97/16451; from tissue
T3 sequence (P31652 whole entry): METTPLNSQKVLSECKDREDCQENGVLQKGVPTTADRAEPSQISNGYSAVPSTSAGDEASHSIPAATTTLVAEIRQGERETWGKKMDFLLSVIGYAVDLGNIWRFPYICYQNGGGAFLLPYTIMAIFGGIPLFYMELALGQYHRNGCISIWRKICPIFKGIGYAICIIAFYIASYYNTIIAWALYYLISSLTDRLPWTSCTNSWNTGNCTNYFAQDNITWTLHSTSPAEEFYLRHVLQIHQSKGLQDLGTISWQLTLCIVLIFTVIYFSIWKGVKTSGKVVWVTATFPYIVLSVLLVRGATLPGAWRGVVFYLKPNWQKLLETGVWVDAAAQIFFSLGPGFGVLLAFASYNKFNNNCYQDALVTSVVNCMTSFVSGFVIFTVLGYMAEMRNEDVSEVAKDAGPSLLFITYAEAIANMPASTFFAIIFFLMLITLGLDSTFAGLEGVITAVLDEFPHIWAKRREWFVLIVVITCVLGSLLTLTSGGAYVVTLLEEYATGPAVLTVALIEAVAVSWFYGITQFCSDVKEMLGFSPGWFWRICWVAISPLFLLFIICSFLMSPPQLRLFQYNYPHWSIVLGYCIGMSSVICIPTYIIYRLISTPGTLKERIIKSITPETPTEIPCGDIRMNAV
Method: as §1, §2

CNC1CCN(c2ccc(Cl)c(Cl)c2)CC1 (as salt: hydrochloric acid salt) [1st compound of method B, [1-(3,4-Dichloro-phenyl)-piperidin-4-yl]-methyl-amine]
melting point: 240 to 244 °C

NC1CCN(c2ccc(Cl)c(Cl)c2)CC1 (as salt: hydrochloric acid salt) [1st compound of method A, 1-(3,4-Dichloro-phenyl)-piperidin-4-ylamine]
melting point: > 250 °C (dec.)

NC1CCN(c2ccc(Cl)c(Cl)c2)CC1 [1st compound of method A, 1-(3,4-Dichloro-phenyl)-piperidin-4-ylamine]
IC50 [1]: 0.4 µM
IC50 [2]: 0.15 µM
IC50 [3]: 0.027 µM

CNC1CCN(c2ccc(Cl)c(Cl)c2)CC1 [1st compound of method B, [1-(3,4-Dichloro-phenyl)-piperidin-4-yl]-methyl-amine]
IC50 [1]: 0.38 µM
IC50 [2]: 0.2 µM
IC50 [3]: 0.027 µM
